# According to patent US7375083B2, “Pharmaceutical compositions for prevention of overdose or abuse” (Shire LLC, priority 2003, dated 2008):
# Assays:
# [1] = system: Male Sprague-Dawley rats; assay: Horizontal locomotor activity after oral administration; type: in vivo; settings: oral gavage, 6 mg/kg amphetamine equivalent
# [2] = system: Male Sprague-Dawley rats; assay: Locomotor activity after intranasal administration with and without CMC; type: in vivo
# [3] = system: Male Sprague-Dawley rats; assay: Locomotor activity after intravenous administration; type: in vivo
# [4] = Oral pharmacokinetics in rats, plasma d-amphetamine by ELISA; settings: rat; oral; 60 mg/kg
# [5] = system: Anesthetized Dog; assay: Cardiovascular effects after intravenous bolus injection in anesthetized dogs
# [6] = 1.0 mg/kg amphetamine equivalent, 1 h
# [7] = 1.0 mg/kg, activity above baseline relative to d-amphetamine
# [8] = 1.0 mg/kg amphetamine equivalent, 3 h
compound,measurement,setting,value
"C[C@H](N)Cc1ccccc1 [d-amphetamine, reference compound]",Peak of activity (Counts per 0.2 h),[1]; 5 Hours,291 Counts per 0.2 h
same,Time of Last Count Above 200 per 0.2 h,[1]; 5 Hours,2.6 h
same,Total Activity Counts,[1]; 5 Hours,515 Counts
same,Total Activity Counts Above Baseline,[1]; 5 Hours,0 Counts
same,Peak of activity (Counts per 0.2 h),[1]; 12 Hours,223 Counts per 0.2 h
same,Time of Last Count Above 100 per 0.2 h,[1]; 12 Hours,6.4 h
same,Total Activity Counts,[1]; 12 Hours,6622 Counts
same,Total Activity Counts Above Baseline,[1]; 12 Hours,5686 Counts
same,Total Activity Counts (1 h),[2]; [6],858 Counts
same,Total Activity Counts Above Baseline,[2]; [6],686 Counts
same,Percent d-amphetamine,[2]; [7],100%
same,Total Activity Counts 3 h,[3]; [8],1659 Counts
same,Total Activity Counts Above Baseline,[3]; [8],1355 Counts
same,Percent d-amphetamine,[3]; [7],100%
same,Animals that died or were sacrificed due to acute symptoms of toxicity,[4],8 of 12
same,DAP % Change from respective Time 0,"[5]; 0.202 mg/kg, TIME 0",0%
same,LVP % Change from respective Time 0,"[5]; 0.202 mg/kg, TIME 0",0%
same,MAP % Change from respective Time 0,"[5]; 0.202 mg/kg, TIME 0",0%
same,MAP - mean arterial pressure,"[5]; 0.202 mg/kg, TIME 0",84 mmHg
same,SAP % Change from respective Time 0,"[5]; 0.202 mg/kg, TIME 0",0%
same,SAP - systolic arterial pressure,"[5]; 0.202 mg/kg, TIME 0",111 mmHg
same,DAP % Change from respective Time 0,"[5]; 0.202 mg/kg, TIME 5",117%
same,LVP % Change from respective Time 0,"[5]; 0.202 mg/kg, TIME 5",107%
same,MAP % Change from respective Time 0,"[5]; 0.202 mg/kg, TIME 5",109%
same,MAP - mean arterial pressure,"[5]; 0.202 mg/kg, TIME 5",176 mmHg
same,SAP % Change from respective Time 0,"[5]; 0.202 mg/kg, TIME 5",97%
same,SAP - systolic arterial pressure,"[5]; 0.202 mg/kg, TIME 5",218 mmHg
same,DAP % Change from respective Time 0,"[5]; 0.202 mg/kg, TIME 15",45%
same,LVP % Change from respective Time 0,"[5]; 0.202 mg/kg, TIME 15",52%
same,MAP % Change from respective Time 0,"[5]; 0.202 mg/kg, TIME 15",49%
same,MAP - mean arterial pressure,"[5]; 0.202 mg/kg, TIME 15",125 mmHg
same,SAP % Change from respective Time 0,"[5]; 0.202 mg/kg, TIME 15",52%
same,SAP - systolic arterial pressure,"[5]; 0.202 mg/kg, TIME 15",168 mmHg
same,DAP % Change from respective Time 0,"[5]; 0.202 mg/kg, TIME 25",30%
same,LVP % Change from respective Time 0,"[5]; 0.202 mg/kg, TIME 25",37%
same,MAP % Change from respective Time 0,"[5]; 0.202 mg/kg, TIME 25",31%
same,MAP - mean arterial pressure,"[5]; 0.202 mg/kg, TIME 25",110 mmHg
same,SAP % Change from respective Time 0,"[5]; 0.202 mg/kg, TIME 25",34%
same,SAP - systolic arterial pressure,"[5]; 0.202 mg/kg, TIME 25",148 mmHg
same,DAP % Change from respective Time 0,"[5]; 0.202 mg/kg, TIME 30",20%
same,LVP % Change from respective Time 0,"[5]; 0.202 mg/kg, TIME 30",30%
same,MAP % Change from respective Time 0,"[5]; 0.202 mg/kg, TIME 30",23%
same,MAP - mean arterial pressure,"[5]; 0.202 mg/kg, TIME 30",103 mmHg
same,SAP % Change from respective Time 0,"[5]; 0.202 mg/kg, TIME 30",26%
same,SAP - systolic arterial pressure,"[5]; 0.202 mg/kg, TIME 30",140 mmHg
same,DAP % Change from respective Time 0,"[5]; 0.404 mg/kg, TIME 0",0%
same,LVP % Change from respective Time 0,"[5]; 0.404 mg/kg, TIME 0",0%
same,MAP % Change from respective Time 0,"[5]; 0.404 mg/kg, TIME 0",0%
same,MAP - mean arterial pressure,"[5]; 0.404 mg/kg, TIME 0",101 mmHg
same,SAP % Change from respective Time 0,"[5]; 0.404 mg/kg, TIME 0",0%
same,SAP - systolic arterial pressure,"[5]; 0.404 mg/kg, TIME 0",139 mmHg
same,DAP % Change from respective Time 0,"[5]; 0.404 mg/kg, TIME 5",88%
same,LVP % Change from respective Time 0,"[5]; 0.404 mg/kg, TIME 5",79%
same,MAP % Change from respective Time 0,"[5]; 0.404 mg/kg, TIME 5",85%
same,MAP - mean arterial pressure,"[5]; 0.404 mg/kg, TIME 5",187 mmHg
same,SAP % Change from respective Time 0,"[5]; 0.404 mg/kg, TIME 5",73%
same,SAP - systolic arterial pressure,"[5]; 0.404 mg/kg, TIME 5",240 mmHg
same,DAP % Change from respective Time 0,"[5]; 0.404 mg/kg, TIME 15",44%
same,LVP % Change from respective Time 0,"[5]; 0.404 mg/kg, TIME 15",43%
same,MAP % Change from respective Time 0,"[5]; 0.404 mg/kg, TIME 15",43%
same,MAP - mean arterial pressure,"[5]; 0.404 mg/kg, TIME 15",145 mmHg
same,SAP % Change from respective Time 0,"[5]; 0.404 mg/kg, TIME 15",39%
same,SAP - systolic arterial pressure,"[5]; 0.404 mg/kg, TIME 15",193 mmHg
same,DAP % Change from respective Time 0,"[5]; 0.404 mg/kg, TIME 25",17%
same,LVP % Change from respective Time 0,"[5]; 0.404 mg/kg, TIME 25",26%
same,MAP % Change from respective Time 0,"[5]; 0.404 mg/kg, TIME 25",20%
same,MAP - mean arterial pressure,"[5]; 0.404 mg/kg, TIME 25",122 mmHg
same,SAP % Change from respective Time 0,"[5]; 0.404 mg/kg, TIME 25",19%
same,SAP - systolic arterial pressure,"[5]; 0.404 mg/kg, TIME 25",166 mmHg
same,DAP % Change from respective Time 0,"[5]; 0.404 mg/kg, TIME 30",11%
same,LVP % Change from respective Time 0,"[5]; 0.404 mg/kg, TIME 30",22%
same,MAP % Change from respective Time 0,"[5]; 0.404 mg/kg, TIME 30",16%
same,MAP - mean arterial pressure,"[5]; 0.404 mg/kg, TIME 30",117 mmHg
same,SAP % Change from respective Time 0,"[5]; 0.404 mg/kg, TIME 30",16%
same,SAP - systolic arterial pressure,"[5]; 0.404 mg/kg, TIME 30",160 mmHg
same,DAP % Change from respective Time 0,"[5]; 2.02 mg/kg, TIME 0",0%
same,LVP % Change from respective Time 0,"[5]; 2.02 mg/kg, TIME 0",0%
same,MAP % Change from respective Time 0,"[5]; 2.02 mg/kg, TIME 0",0%
same,MAP - mean arterial pressure,"[5]; 2.02 mg/kg, TIME 0",115 mmHg
same,SAP % Change from respective Time 0,"[5]; 2.02 mg/kg, TIME 0",0%
same,SAP - systolic arterial pressure,"[5]; 2.02 mg/kg, TIME 0",158 mmHg
same,DAP % Change from respective Time 0,"[5]; 2.02 mg/kg, TIME 5",48%
same,LVP % Change from respective Time 0,"[5]; 2.02 mg/kg, TIME 5",40%
same,MAP % Change from respective Time 0,"[5]; 2.02 mg/kg, TIME 5",47%
same,MAP - mean arterial pressure,"[5]; 2.02 mg/kg, TIME 5",169 mmHg
same,SAP % Change from respective Time 0,"[5]; 2.02 mg/kg, TIME 5",44%
same,SAP - systolic arterial pressure,"[5]; 2.02 mg/kg, TIME 5",228 mmHg
same,DAP % Change from respective Time 0,"[5]; 2.02 mg/kg, TIME 15",23%
same,LVP % Change from respective Time 0,"[5]; 2.02 mg/kg, TIME 15",24%
same,MAP % Change from respective Time 0,"[5]; 2.02 mg/kg, TIME 15",23%
same,MAP - mean arterial pressure,"[5]; 2.02 mg/kg, TIME 15",142 mmHg
same,SAP % Change from respective Time 0,"[5]; 2.02 mg/kg, TIME 15",24%
same,SAP - systolic arterial pressure,"[5]; 2.02 mg/kg, TIME 15",196 mmHg
same,DAP % Change from respective Time 0,"[5]; 2.02 mg/kg, TIME 25",17%
same,LVP % Change from respective Time 0,"[5]; 2.02 mg/kg, TIME 25",19%
same,MAP % Change from respective Time 0,"[5]; 2.02 mg/kg, TIME 25",17%
same,MAP - mean arterial pressure,"[5]; 2.02 mg/kg, TIME 25",135 mmHg
same,SAP % Change from respective Time 0,"[5]; 2.02 mg/kg, TIME 25",20%
same,SAP - systolic arterial pressure,"[5]; 2.02 mg/kg, TIME 25",189 mmHg
same,DAP % Change from respective Time 0,"[5]; 2.02 mg/kg, TIME 30",13%
same,LVP % Change from respective Time 0,"[5]; 2.02 mg/kg, TIME 30",16%
same,MAP % Change from respective Time 0,"[5]; 2.02 mg/kg, TIME 30",12%
same,MAP - mean arterial pressure,"[5]; 2.02 mg/kg, TIME 30",129 mmHg
same,SAP % Change from respective Time 0,"[5]; 2.02 mg/kg, TIME 30",16%
same,SAP - systolic arterial pressure,"[5]; 2.02 mg/kg, TIME 30",183 mmHg
same,Effect on mean blood pressure after the first (lowest) dose,"[5]; dog, IV bolus, 0.202 mg/kg d-amphetamine, equimolar to 0.5 mg/kg L-lysine-d-amphetamine",acute doubling of the mean BP
